Experimental data as given in US9938240B2, “Fluorinated derivatives of 3-hydroxypyridin-4-ones” (Apotex Technologies Inc., priority 2009, dated 2018).

Columns and labels:
[1] = system: SH-SY5Y human neuroblastoma cells; conditions: for CC2 (cytotoxic concentration): H2O2-treated cells, viability below 80%; for CC1 (cytotoxic concentration): absence of H2O2, viability below 80%
Source text: Hydrogen peroxide (H2O2) is a major ROS (reactive oxidative species), which causes oxidative stress, and can induce apoptosis in many different cell types. One of the CNS drug design strategies is to use compounds with antioxidant properties as a possible treatment of both acute and chronic neurodegenerative diseases (Kang et al. Bioorganic & Medicinal Chemistry Letters, 2004, 14, 2261-2264). This involves testing the compounds of this invention for their protective effect against oxidative stress-induced cell death in SH-SY5Y human neuroblastoma cells. SH-SY5Y human neuroblastoma cells were cultured in DMEM (ATCC)/F12 (Cellgro) with 10% FBS. The cells were plated at 30,000 cells/cm^2 and grown for 1 day in the regular culture media prior to compound addition. Cells were routinely treated with the test compound, at a pre-determined range of concentrations, in the presence or absence of 50 μM hydrogen peroxide in a basal medium containing no FBS for 16-22 h. Cell viability was then measured using the routine MTT method (Mosmann, T., Rapid Colorimetric Assay for Cellular Growth and Survival: Application to Proliferation and Cytotoxicity Assays”. J. Immunol. Meth. 1983, 65, 55-63).
For data analysis, cell viability relative to control not treated with either H2O2 or the test compound, was plotted against the compound concentration. […] Cytotoxicity of the test compound was assessed in the absence of hydrogen peroxide.

[2] = system: human neuroblastoma MC-65 cells; assay: cells; conditions: for EC100 / minimal effective concentration: Homo sapiens, MC65, 48 h; for EC100: read-out: EC100 (maximum effective concentration); for minimal effective concentration: read-out: TH (threshold protective concentration); for CC2 (cytotoxic concentration): MC-65, cultured without tetracycline; for CC2 (cytotoxic concentration) / CC1 (cytotoxic concentration): viability below 80%; for CC1 (cytotoxic concentration): MC-65, presence of TET
Procedure: In this assay, human neuroblastoma cells (MC-65 cells) are genetically engineered to conditionally express amyloid β peptide (Aβ). The Aβ production is suppressed by tetracycline (TET+) presence in culture medium, and its production is activated when TET is withdrawn (TET−). The activation of Aβ production results in cell death “MC-65 suicide”.
Protective effect of compounds against edogenously produced amyloid beta (Aβ) was assessed in human neuroblastoma MC-65 cells. MC-65 cells have been stably transformed to conditionally express high levels of a partial amyloid precursor (AP) fusion protein (Bryce Sopher et al., Brain Res Mol Brain Res. 1994, 207-17.). This protein is further proteolitically processed in the cells to form a set of AP-derived Aβ peptides. […] Activity of the promoter is tightly regulated by the presence of the antibiotic tetracycline (TET) in the culture medium. In the presence of TET (TET+), the promoter is in the basal state and no amyloid beta peptide is synthesized. In the absence of TET (TET−) the promoter is in induced state, resulting in the accumulation of Aβ peptides in the cells, degenerative changes in cell morphology and decreased survival.
Transfected human neuroblastoma cells (MC-65) were cultured in DMEM (ATCC) supplemented with non-essential amino acids and 10% FBS (VWR) in the presence of TET (1 μg/mL). For the experiment, the cells were plated at 35,000 cells/cm^2 and grown for 1 day in the regular culture media prior to compound addition. On the day of the assay, culture supernatant was removed from the wells and cells were thoroughly washed once with the compound incubation matrix containing no FBS and no TET. MC-65 cells were treated with a test compound at pre-determined range of concentrations in a basal medium containing no FBS and in the absence or presence of 1 μg/mL TET for approximately 48 h. Cell viability was then measured using the MTT method.
For data analysis, cell viabilities relative to the control not treated with a test compound and maintained in the presence of TET were plotted against the compound concentration. […] Cytotoxicity of the test compound was assessed in the cells maintained in the presence of TET.

## Cc1cc(=O)c(O)cn1CC(F)(F)F [Apo6994, 5-hydroxy-2-methyl-1-(2,2,2-trifluoroethyl)pyridin-4(1H)-one]
[1]
  CC2 (cytotoxic concentration): 640 µM
  CC1 (cytotoxic concentration): 160 µM
[2]
  EC100: 10 µM
  minimal effective concentration: 1 µM
  CC2 (cytotoxic concentration): >80 µM
  CC1 (cytotoxic concentration): >80 µM

## CNC(=O)[C@@H](C)NC(c1c(O)c(=O)ccn1C)C(F)(F)F (stereo partly drawn) [Apo6998, N-methyl-N2-[2,2,2-trifluoro-1-(3-hydroxy-1-methyl-4-oxo-1,4-dihydropyridin-2-yl)ethyl]-D-alaninamide]
[1]
  CC2 (cytotoxic concentration): 100 µM
  CC1 (cytotoxic concentration): 20 µM

## CN(C)Cc1cc(=O)c(O)c(CC(F)(F)F)n1C [Apo7021, 6-[(dimethylamino)methyl]-3-hydroxy-1-methyl-2-(2,2,2-trifluoroethyl)pyridin-4(1H)-one]
[1]
  CC2 (cytotoxic concentration): >640 µM
  CC1 (cytotoxic concentration): 80 µM
[2]
  EC100: 10 µM
  minimal effective concentration: 0.1 µM
  CC2 (cytotoxic concentration): 20 µM
  CC1 (cytotoxic concentration): 10 µM

## CN(C)Cc1cc(=O)c(O)c(C(O)C(F)(F)F)n1C (centres unmarked) [Apo7022, 6-[(dimethylamino)methyl]-3-hydroxy-1-methyl-2-(2,2,2-trifluoro-1-hydroxyethyl)pyridin-4(1H)-one]
[1]
  CC2 (cytotoxic concentration): 320 µM
  CC1 (cytotoxic concentration): 40 µM
[2]
  EC100: 20 µM
  minimal effective concentration: 0.1 µM
  CC2 (cytotoxic concentration): 40 µM
  CC1 (cytotoxic concentration): 10 µM

## C[C@H](NCc1cc(=O)c(O)c(C(O)C(F)(F)F)n1C)C(=O)O (stereo partly drawn) [Apo7032, N-{[5-hydroxy-1-methyl-4-oxo-6-(2,2,2-trifluoro-1-hydroxyethyl)-1,4-dihydropyridin-2-yl]methyl}-L-alanine]
[1]
  CC2 (cytotoxic concentration): >640 µM
  CC1 (cytotoxic concentration): 10 µM
[2]
  EC100: 10 µM
  minimal effective concentration: 0.1 µM
  CC2 (cytotoxic concentration): 40 µM
  CC1 (cytotoxic concentration): 80 µM

## CNC(=O)[C@H](C)NCc1cc(=O)c(O)c(C(O)C(F)(F)F)n1C (stereo partly drawn) [Apo7033, N-2-{[5-hydroxy-1-methyl-4-oxo-6-(2,2,2-trifluoro-1-hydroxyethyl)-1,4-dihydropyridin-2-yl]methyl}-N-methyl-L-alaninamide]
[1]
  CC2 (cytotoxic concentration): >640 µM
  CC1 (cytotoxic concentration): 40 µM

## Cc1c(Cl)c(=O)c(O)c(C(O)C(F)(F)F)n1C (centres unmarked) [Apo7038, 3-chloro-5-hydroxy-1,2-dimethyl-6-(2,2,2-trifluoro-1-hydroxyethyl)pyridin-4(1H)-one]
[1]
  CC2 (cytotoxic concentration): >640 µM
  CC1 (cytotoxic concentration): 40 µM

## Cc1c(O)c(=O)c(C(N2CCCCC2)C(F)(F)F)cn1C (centres unmarked) [Apo7054, 3-Hydroxy-1,2-dimethyl-5-[2,2,2-trifluoro-1-(piperidin-1-yl)ethyl]pyridin-4(1H)-one]
[1]
  CC2 (cytotoxic concentration): >640 µM
  CC1 (cytotoxic concentration): 5 µM
[2]
  EC100: 1 µM
  minimal effective concentration: 0.1 µM
  CC2 (cytotoxic concentration): 20 µM
  CC1 (cytotoxic concentration): 20 µM

## Cc1c(O)c(=O)c(C(n2ccnc2)C(F)(F)F)cn1C (centres unmarked) [Apo7055, 3-Hydroxy-1,2-dimethyl-5-[2,2,2-trifluoro-1-(1H-imidazol-1-yl)ethyl]pyridin-4(1H)-one]
[1]
  CC2 (cytotoxic concentration): >640 µM
  CC1 (cytotoxic concentration): 10 µM
[2]
  EC100: 20 µM
  minimal effective concentration: 1 µM
  CC2 (cytotoxic concentration): 40 µM
  CC1 (cytotoxic concentration): 40 µM

## C#CCN(C)C(c1c(O)c(=O)ccn1C)C(F)(F)F (centres unmarked) [Apo7057, 3-hydroxy-1-methyl-2-{2,2,2-trifluoro-1-[methyl(prop-2-yn-1-yl)amino]ethyl}pyridin-4(1H)-one]
[1]
  CC2 (cytotoxic concentration): 80 µM
  CC1 (cytotoxic concentration): 5 µM
[2]
  EC100: 10 µM
  minimal effective concentration: 1 µM
  CC2 (cytotoxic concentration): 20 µM
  CC1 (cytotoxic concentration): 20 µM

## Cn1ccc(=O)c(O)c1C(N1CCCCC1)C(F)(F)F (centres unmarked) [Apo7058, 3-hydroxy-1-methyl-2-[2,2,2-trifluoro-1-(piperidin-1-yl)ethyl]pyridin-4(1H)-one]
[1]
  CC2 (cytotoxic concentration): >640 µM
  CC1 (cytotoxic concentration): 20 µM
[2]
  EC100: 10 µM
  minimal effective concentration: 1 µM
  CC2 (cytotoxic concentration): 80 µM
  CC1 (cytotoxic concentration): 10 µM

## Cc1c(Cl)c(=O)c(O)c(C(N(C)C)C(F)(F)F)n1C (centres unmarked) [Apo7059, 3-chloro-6-[1-(dimethylamino)-2,2,2-trifluoroethyl]-5-hydroxy-1,2-dimethylpyridin-4(1H)-one]
[1]
  CC2 (cytotoxic concentration): 640 µM
  CC1 (cytotoxic concentration): 40 µM
[2]
  EC100: 10 µM
  minimal effective concentration: 1 µM
  CC2 (cytotoxic concentration): 40 µM
  CC1 (cytotoxic concentration): 10 µM

## Cn1cc(Cl)c(=O)c(O)c1C(N1CCCCC1)C(F)(F)F (centres unmarked) [Apo7061, 5-chloro-3-hydroxy-1-methyl-2-[2,2,2-trifluoro-1-(piperidin-1-yl)ethyl]pyridin-4(1H)-one]
[1]
  CC2 (cytotoxic concentration): 10 µM
  CC1 (cytotoxic concentration): 10 µM
[2]
  EC100: 10 µM
  minimal effective concentration: 1 µM
  CC2 (cytotoxic concentration): 20 µM
  CC1 (cytotoxic concentration): 40 µM

## Cc1c(O)c(=O)c(C(N2CCN(C)CC2)C(F)(F)F)cn1C.Cl (centres unmarked) [Apo7063, 3-Hydroxy-1,2-dimethyl-5-[2,2,2-trifluoro-1-(4-methylpiperazin-1-yl)ethyl]pyridin-4(1H)-one hydrochloride]
[1]
  CC2 (cytotoxic concentration): >640 µM
  CC1 (cytotoxic concentration): 320 µM

## Cc1cc(=O)c(O)c(CN2CCCCC2)n1CC(F)(F)F [Apo7071, 3-hydroxy-6-methyl-2-(piperidin-1-ylmethyl)-1-(2,2,2-trifluoroethyl)pyridin-4(1H)-one]
[1]
  CC2 (cytotoxic concentration): 80 µM
  CC1 (cytotoxic concentration): 20 µM
[2]
  EC100: 10 µM
  minimal effective concentration: 1 µM
  CC2 (cytotoxic concentration): 20 µM
  CC1 (cytotoxic concentration): 40 µM

## CN1CCN(C(c2c(O)c(=O)ccn2C)C(F)(F)F)CC1 (centres unmarked) [Apo7073, 3-hydroxy-1-methyl-2-[2,2,2-trifluoro-1-(4-methylpiperazin-1-yl)ethyl]pyridin-4(1H)-one]
[1]
  CC2 (cytotoxic concentration): >640 µM
  CC1 (cytotoxic concentration): 40 µM
[2]
  EC100: 10 µM
  minimal effective concentration: 0.1 µM
  CC2 (cytotoxic concentration): 20 µM
  CC1 (cytotoxic concentration): 40 µM

## Cn1ccc(=O)c(O)c1C(NC1CC1)C(F)(F)F (centres unmarked) [Apo7074, 2-[1-(cyclopropylamino)-2,2,2-trifluoroethyl]-3-hydroxy-1-methylpyridin-4(1H)-one]
[1]
  CC2 (cytotoxic concentration): >640 µM
  CC1 (cytotoxic concentration): 20 µM
[2]
  EC100: 10 µM
  minimal effective concentration: 0.1 µM
  CC2 (cytotoxic concentration): 20 µM
  CC1 (cytotoxic concentration): 10 µM

## C=CCNC(c1c(O)c(=O)ccn1C)C(F)(F)F (centres unmarked) [Apo7075, 3-hydroxy-1-methyl-2-[2,2,2-trifluoro-1-(prop-2-en-1-ylamino)ethyl]pyridin-4(1H)-one]
[1]
  CC2 (cytotoxic concentration): >640 µM
  CC1 (cytotoxic concentration): 20 µM
[2]
  EC100: 10 µM
  minimal effective concentration: 0.1 µM
  CC2 (cytotoxic concentration): 20 µM
  CC1 (cytotoxic concentration): 10 µM

## Cn1ccc(=O)c(O)c1C(C(F)F)N1CCN(c2ccccn2)CC1 (centres unmarked) [Apo7316, 2-(2,2-difluoro-1-(4-(pyridin-2-yl)piperazin-1-yl)ethyl)-3-hydroxy-1-methylpyridin-4(1H)-one]
[1]
  CC2 (cytotoxic concentration): 320 µM
  CC1 (cytotoxic concentration): 320 µM
[2]
  EC100: 10 µM
  minimal effective concentration: 1 µM
  CC2 (cytotoxic concentration): 20 µM
  CC1 (cytotoxic concentration): 10 µM
